Reference: patent US20250333393A1, “HETEROCYCLIC COMPOUND AS TYK2 INHIBITOR, AND SYNTHESIS AND USE THEREOF” (ZHEJIANG WENDA PHARMACEUTICAL TECHNOLOGY CO., LTD., priority 2023, published 2025)
Where two headings read alike, the source gives them in different places.

Tests used:
[1] = system: pSTAT5 in CD3+ cells; experiment: Inhibition of IFN-alpha induced pSTAT5 expression in CD3+ cells (human PBMC), FACS assay; type: cell-based; conditions: IFN-α 20 ng/ml
Experimental: Test Example 1: The Inhibitory Effect of Compounds on the Expression of Pstat5 in CD3+ Cells Using FACS Assay
• DMSO, Sigma, Cat #D2650-100 mL, stored at room temperature. • Perm buffer III, BD Biosciences, Cat #558050, stored at 4° C. • Lyse/Fix buffer, BD Biosciences, Cat #558049, stored at room temperature. • EDTA, Invitrogen, Cat #15575-038, stored at room temperature. • PBS, Hyclone, Cat #SH30256.01, stored at 4° C. • PE Mouse Anti-Human CD3, BD Biosciences, Cat #555333, stored at 4° C. • Mouse anti-human Phospho-STAT5 (pY694) (Alexa Fluor® 647 Conjugate), • BD Biosciences, Cat #562076, stored at 4° C. • IFN-α, Biolegend, Cat #592702.
• 1) On the day of experiment, the compound was prepared into a 10 mM solution with DMSO, diluted to 1.5 mM in DMSO, and then diluted to 8 gradient concentrations in 3-fold dilutions Concentrations. • 2) 5 μL of the diluted compound was transferred into 120 ul of DPBS solution containing 0.1% BSA. • 3) Positive and negative control groups were set up, and 0.2% DMSO was added to the positive and negative control groups. 2.2 Experimental procedure • 1) 0.5 million and 67.5 ul of human PBMC cells was added to the 96-well cell culture plate per well. • 2) 3.5 ul of diluted compound was added and mixed well. • 3) Incubation was conducted in a 37° C. incubator for 60 minutes. • 4) IFN-alpha was diluted in DPBS containing 0.1% BSA to […], and PE anti-hCD3 antibody was diluted in DPBS containing 0.1% BSA to 3 fold. When the above 60-minute incubation was complete, diluted PE anti-hCD3 antibody was added at 5 ul per well and diluted IFN-α was added at 4 ul per well, i.e., the final concentration of IFN-α per well is 20 ng/ml. • 5) Incubation was conducted in a 37° C. incubator for 30 minutes. • 6) All cells were transferred to a 96-well deep well plate and 1 ml of 37° C. preheated lysis/fix buffer was added. • 7) Incubation was conducted at 37° C. in dark for 10 minutes. • 8) Centrifugation was carried out at 600 g for 5 minutes and then the supernatant was discarded. 1 ml PBS was added to wash for twice and then centrifuged. • 9) 1 ml of Perm buffer III was added to the cell precipitation. • 10) Incubation was conducted at 4° C. in dark for 30 minutes. • 11) Centrifugation was carried out at 600 g for 5 minutes and then the supernatant was discarded. 1 ml PBS was added to wash for twice and then centrifuged. • 12) APC anti-human pSTAT5 antibody was diluted in staining buffer by 200-fold, which was added to cell wells at 100 uL per well and mixed well. • 13) Incubation was conducted at room temperature for 40 minutes. • 14) Staining buffer was added to wash for twice with 1 mL for each well, and centrifugation was carried out at 600 g for 5 minutes. • 15) After discarding the supernatant, the cell precipitation was re-suspended in 300 μL of staining buffer. • 16) Sample loading and analysis were carried out in a flow cytometer. The IC50 of the samples to be tested was obtained from the above, Table 1.

[2] = target: TYK2(JH2) (Homo sapiens (Human), UniProt P29597); experiment: Pseudo kinase experiment, TYK2 (JH2), tracer/Tb; type: binding
Experimental: (§1) 1.1.1. The compound was dissolved with DMSO to a storage concentration of 10 mM.
(§2) 1.1.2. A compound concentration of 200 times the final concentration was prepared in a compound dilution plate, which was diluted from the highest concentration point with a total of 4 concentration points using the 27 times dilution method, and transferred to the Echo plate.
(§3) 1.1.3. The compound was flushed from the Echo plate to the 384-well experimental plate using an Echo instrument, and the compound become 11 concentration points of the 3-fold dilution matrix.
(§4) 1.1.4. 5 μl of 3×TYK2(JH2) or JAK1(JH2) kinase was added to the 384-well experimental plate.
(§5) 1.1.5. 5 μl of 3×Tb was added to the 384-well experimental plate.
(§6) 1.1.6.5 μl of 3× Tracer was added to the 384-well experimental plate.
(§7) 1.1.7. Centrifugation was conducted for 30 seconds and incubation was carried out at room temperature for 60 minutes.
(§8) 1.1.8. The signal values were read using Envision Microplate Reader (PerkinElmer).
(§9) 1.3.1. XL-Fit software was used for data analysis to obtain IC50 of the compounds, Table 2.

[3] = target: JAK3 (JH1) (Homo sapiens (Human), UniProt P52333); experiment: JAK family kinase experiment, JAK3 (JH1); type: biochemical
Experimental: (§10) 1.2.1. The compound was dissolved with DMSO to a storage concentration of 10 mM.
(§11) 1.2.2. A compound concentration of 100 times the final concentration was prepared in a compound dilution plate, which was diluted from the highest concentration point with a total of 4 concentration points using the 27 times dilution method, and transferred to the Echo plate.
(§12) 1.2.3. The compound was flushed from the Echo plate to the 384 experimental plate using an Echo instrument, and the compound become 11 concentration points of the 3-fold dilution matrix.
(§13) 1.2.4. 2× kinase working solution was prepared, which was added to a 384-well experimental plate at 5 μl per well. The compound and the kinase were incubated at room temperature for 15 minutes.
(§14) 1.2.5. 5 ul of 2× substrate (containing ATP) was added to the 384 well plate.
(§15) 1.2.6. Incubation was conducted at room temperature for 45 minutes.
(§16) 1.2.7. The detection reagent mixture was added to the 384-well plate, and centrifuged for 30 seconds, and incubation was conducted at room temperature for 60 minutes.
(§17) 1.2.8. The signal values were read using Envision Microplate Reader (PerkinElmer).
as §9

[4] = Drug concentrations in plasma samples and brain tissue samples after oral administration, LC-MS/MS; type: in vivo, female C57BL/6 mice; conditions: female, C57BL/6, mouse, 15 consecutive days, 2Hr after the last dose, mice; for Kp at 2 h: brain/plasma, read-out: Ratio (brain tissue to plasma concentration)
Experimental: The purpose of the study was to evaluate drug concentrations in plasma samples and brain tissue samples of female C57BL/6 mice after 15 consecutive days of oral administration of 10 mg/kg, 30 mg/kg, and 90 mg/kg of Compound 4S. The drug concentrations of Compound 4S in plasma samples and brain tissue homogenate samples were detected by the positive ion (ESI) multi-reactive ion monitoring (MRM) scanning mode of LC-MS instrument with a linear range of 1-10000 ng/mL.
Plasma samples from 10 mice orally administered with Compound 4S: For standard curves, QC samples, single blanks, and unknown samples, the sample volume was 10 μL and each was added with 200 μL of methanol: acetonitrile=1:1 (v/v) precipitant (containing 5 ng/mL of Terfenadine). For double-blank samples, each was added with 200 μL of Methanol: Acetonitrile=1:1 (v/v) precipitant. The samples were vortexed for 1 min and centrifuged for 15 min (4000 rpm, 4° C.) to obtain the supernatant solution, which was diluted by 10-fold using methanol: water=1:1 (v/v, containing 0.1% FA) as the diluent solution and then subjected to LC-MS/MS analysis.
Brain tissue homogenate samples from 10 mice orally administered with Compound 4S: For standard curves, QC samples, single blanks, and unknown samples, the sample volume was 50 μL and each was added with 200 μL of methanol: acetonitrile=1:1 (v/v) precipitant (containing 5 ng/mL of Terfenadine). For double-blank samples, a 50 μL sample of blank brain tissue homogenate was taken and added with 200 μL of methanol/acetonitrile (1:1, v/v) precipitant. The samples were vortexed for 1 min and centrifuged for 15 min (4000 rpm, 4° C.) to obtain the supernatant solution, which was diluted by 10-fold using methanol: water=1:1 (v/v, containing 0.1% FA) as the diluent solution and then subjected to LC-MS/MS analysis. Drug exposures in plasma samples and brain tissue samples at different administered doses and at different frequencies of administration of the same administered dose were compared (Table 3).

[5] = target: TYK2 (JH1) (Homo sapiens (Human), UniProt P29597); experiment: JAK family kinase experiment, TYK2 (JH1); type: biochemical
Experimental: as §10, §11, §12, §13, §14, §15, §16, §17, §9

[6] = target: JAK2 (JH1) (Homo sapiens (Human), UniProt O60674); experiment: JAK family kinase experiment, JAK2 (JH1); type: biochemical
Experimental: as §10, §11, §12, §13, §14, §15, §16, §17, §9

[7] = target: JAK1(JH2) (Homo sapiens (Human), UniProt P23458); experiment: Pseudo kinase experiment, JAK1 (JH2), tracer/Tb; type: binding
Experimental: as §1, §2, §3, §4, §5, §6, §7, §8, §9

[8] = target: JAK1 (JH1) (Homo sapiens (Human), UniProt P23458); experiment: JAK family kinase experiment, JAK1 (JH1); type: biochemical
Experimental: as §10, §11, §12, §13, §14, §15, §16, §17, §9

TYK2 (JH1), sequence (P29597 897-1176): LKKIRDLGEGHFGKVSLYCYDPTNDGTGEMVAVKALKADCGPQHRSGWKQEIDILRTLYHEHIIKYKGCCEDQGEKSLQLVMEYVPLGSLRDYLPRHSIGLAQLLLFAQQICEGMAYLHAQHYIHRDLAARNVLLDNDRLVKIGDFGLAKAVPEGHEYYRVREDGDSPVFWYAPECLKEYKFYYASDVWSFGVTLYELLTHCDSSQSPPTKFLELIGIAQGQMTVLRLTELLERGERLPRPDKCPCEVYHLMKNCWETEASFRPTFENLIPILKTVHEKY
JAK1(JH2), sequence (P23458 583-855): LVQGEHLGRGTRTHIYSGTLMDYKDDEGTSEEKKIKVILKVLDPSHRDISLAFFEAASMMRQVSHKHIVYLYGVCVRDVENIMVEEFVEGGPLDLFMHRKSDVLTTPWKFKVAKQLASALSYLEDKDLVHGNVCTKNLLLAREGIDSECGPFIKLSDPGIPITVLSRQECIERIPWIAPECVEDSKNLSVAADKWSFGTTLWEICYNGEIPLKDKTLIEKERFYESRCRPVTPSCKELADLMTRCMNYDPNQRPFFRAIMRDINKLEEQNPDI
JAK1 (JH1), sequence (P23458 875-1153): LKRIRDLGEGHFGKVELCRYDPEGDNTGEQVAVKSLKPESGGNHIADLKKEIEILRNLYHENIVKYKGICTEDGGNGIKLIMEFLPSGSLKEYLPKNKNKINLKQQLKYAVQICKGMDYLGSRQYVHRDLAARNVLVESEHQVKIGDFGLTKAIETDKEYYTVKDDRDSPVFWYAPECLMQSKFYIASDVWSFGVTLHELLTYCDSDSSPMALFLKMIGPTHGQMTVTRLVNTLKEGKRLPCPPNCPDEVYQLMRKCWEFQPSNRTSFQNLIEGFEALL
JAK2 (JH1), sequence (O60674 849-1124): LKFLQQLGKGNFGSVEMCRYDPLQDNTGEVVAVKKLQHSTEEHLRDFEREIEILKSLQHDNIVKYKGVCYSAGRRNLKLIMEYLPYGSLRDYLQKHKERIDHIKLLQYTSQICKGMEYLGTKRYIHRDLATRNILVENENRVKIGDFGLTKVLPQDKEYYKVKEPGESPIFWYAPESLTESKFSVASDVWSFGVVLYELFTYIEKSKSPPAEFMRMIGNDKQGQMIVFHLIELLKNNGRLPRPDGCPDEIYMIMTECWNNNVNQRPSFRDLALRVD
JAK3 (JH1), sequence (P52333 822-1111): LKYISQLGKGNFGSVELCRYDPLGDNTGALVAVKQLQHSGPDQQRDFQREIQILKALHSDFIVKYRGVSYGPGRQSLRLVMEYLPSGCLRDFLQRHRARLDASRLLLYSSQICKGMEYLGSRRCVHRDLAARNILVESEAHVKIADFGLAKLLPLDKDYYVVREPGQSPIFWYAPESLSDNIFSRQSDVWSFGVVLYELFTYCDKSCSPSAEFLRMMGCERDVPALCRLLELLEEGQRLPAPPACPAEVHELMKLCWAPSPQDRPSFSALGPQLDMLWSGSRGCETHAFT
TYK2(JH2), sequence (P29597 589-875): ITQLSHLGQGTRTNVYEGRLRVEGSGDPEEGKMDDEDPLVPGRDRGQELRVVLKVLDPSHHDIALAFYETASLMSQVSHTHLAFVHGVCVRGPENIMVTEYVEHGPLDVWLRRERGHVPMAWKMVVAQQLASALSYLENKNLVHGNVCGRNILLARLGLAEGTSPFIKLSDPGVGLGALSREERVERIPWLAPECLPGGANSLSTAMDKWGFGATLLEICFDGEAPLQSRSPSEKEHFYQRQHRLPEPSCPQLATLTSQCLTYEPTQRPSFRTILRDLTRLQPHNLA

CCC(=O)c1cnc(NC(=O)[C@@H]2CC23CC3)cc1Nc1nccc(-c2cnn(C)n2)c1OC [Compound 1R]
IC50 [1]: > 50 nM

CCC(=O)c1cnc(NC(=O)[C@H]2CC23CC3)cc1Nc1nccc(-c2cnn(C)n2)c1OC [Compound 1S]
IC50 [1]: < 50 nM

CCC(=O)c1cnc(NC(=O)[C@@H]2CC23CC3)cc1Nc1cccc(-c2cnn(C)n2)c1OC [Compound 2R]
IC50 [1]: > 50 nM

CCC(=O)c1cnc(NC(=O)[C@H]2CC23CC3)cc1Nc1cccc(-c2cnn(C)n2)c1OC [Compound 2S]
IC50 [1]: > 50 nM

[2H]C([2H])([2H])n1ncc(-c2ccnc(Nc3cc(NC(=O)[C@@H]4CC45CC5)ncc3C(=O)CC)c2OC)n1 [Compound 3R]
IC50 [1]: < 50 nM

[2H]C([2H])([2H])n1ncc(-c2ccnc(Nc3cc(NC(=O)[C@H]4CC45CC5)ncc3C(=O)CC)c2OC)n1 [Compound 3S]
IC50 [1]: < 50 nM

[2H]C([2H])([2H])Oc1c(-c2cnn(C)n2)ccnc1Nc1cc(NC(=O)[C@@H]2CC23CC3)ncc1C(=O)CC [Compound 4R]
IC50 [1]: > 50 nM

[2H]C([2H])([2H])Oc1c(-c2cnn(C)n2)ccnc1Nc1cc(NC(=O)[C@H]2CC23CC3)ncc1C(=O)CC [Compound 4S]
IC50 [2]: 0.29 nM
IC50 [3]: > 9900 nM
concentration at 2 h ([4]; brain, 10 mg/kg, 10 mg QD oral, read-out: concentration in brain): 615 ng/mL
concentration at 2 h ([4]; brain, 30 mg/kg, 30 mg BID oral, read-out: concentration in brain): 2360 ng/mL
concentration at 2 h ([4]; brain, 30 mg/kg, 30 mg QD oral, read-out: concentration in brain): 2360 ng/mL
concentration at 2 h ([4]; brain, 90 mg/kg, 90 mg QD oral, read-out: concentration in brain): 6260 ng/mL
Kp at 2 h ([4]; 10 mg/kg, 10 mg QD oral): 0.788
Kp at 2 h ([4]; 30 mg/kg, 30 mg BID oral): 0.88
Kp at 2 h ([4]; 30 mg/kg, 30 mg QD oral): 1.11
Kp at 2 h ([4]; 90 mg/kg, 90 mg QD oral): 1.32
concentration at 2 h ([4]; plasma, 10 mg/kg, 10 mg QD oral, read-out: concentration in plasma): 784 ng/mL
concentration at 2 h ([4]; plasma, 30 mg/kg, 30 mg BID oral, read-out: concentration in plasma): 2740 ng/mL
concentration at 2 h ([4]; plasma, 30 mg/kg, 30 mg QD oral, read-out: concentration in plasma): 2040 ng/mL
concentration at 2 h ([4]; plasma, 90 mg/kg, 90 mg QD oral, read-out: concentration in plasma): 4720 ng/mL
IC50 [5]: > 9900 nM
IC50 [1]: < 50 nM
IC50 [6]: 5420 nM
IC50 [7]: 22 nM
IC50 [8]: > 9900 nM

[2H]C([2H])([2H])Oc1c(-c2cnn(C([2H])([2H])[2H])n2)ccnc1Nc1cc(NC(=O)[C@@H]2CC23CC3)ncc1C(=O)CC [Compound 5R]
IC50 [1]: > 50 nM

[2H]C([2H])([2H])Oc1c(-c2cnn(C([2H])([2H])[2H])n2)ccnc1Nc1cc(NC(=O)[C@H]2CC23CC3)ncc1C(=O)CC [Compound 5S]
IC50 [1]: < 50 nM

CCC(=O)c1cnc(NC(=O)[C@@H]2CC23CC3)cc1Nc1nc(C)cc(-c2cnn(C)n2)c1OC [Compound 6R]
IC50 [1]: < 50 nM

CCC(=O)c1cnc(NC(=O)[C@H]2CC23CC3)cc1Nc1nc(C)cc(-c2cnn(C)n2)c1OC [Compound 6S]
IC50 [1]: < 50 nM
